Assays:
[1] = target: T1, human T1R2 and mouse T1R3 GPCRs (UniProt Q8TE23+Q925D8); assay: HEK cells transfected with human T1R2 and mouse T1R3; assay type: cell-based
T1 construct: expressed in transfected cells; host or cells: HEK cells
T1 sequence (Q8TE23 20-839): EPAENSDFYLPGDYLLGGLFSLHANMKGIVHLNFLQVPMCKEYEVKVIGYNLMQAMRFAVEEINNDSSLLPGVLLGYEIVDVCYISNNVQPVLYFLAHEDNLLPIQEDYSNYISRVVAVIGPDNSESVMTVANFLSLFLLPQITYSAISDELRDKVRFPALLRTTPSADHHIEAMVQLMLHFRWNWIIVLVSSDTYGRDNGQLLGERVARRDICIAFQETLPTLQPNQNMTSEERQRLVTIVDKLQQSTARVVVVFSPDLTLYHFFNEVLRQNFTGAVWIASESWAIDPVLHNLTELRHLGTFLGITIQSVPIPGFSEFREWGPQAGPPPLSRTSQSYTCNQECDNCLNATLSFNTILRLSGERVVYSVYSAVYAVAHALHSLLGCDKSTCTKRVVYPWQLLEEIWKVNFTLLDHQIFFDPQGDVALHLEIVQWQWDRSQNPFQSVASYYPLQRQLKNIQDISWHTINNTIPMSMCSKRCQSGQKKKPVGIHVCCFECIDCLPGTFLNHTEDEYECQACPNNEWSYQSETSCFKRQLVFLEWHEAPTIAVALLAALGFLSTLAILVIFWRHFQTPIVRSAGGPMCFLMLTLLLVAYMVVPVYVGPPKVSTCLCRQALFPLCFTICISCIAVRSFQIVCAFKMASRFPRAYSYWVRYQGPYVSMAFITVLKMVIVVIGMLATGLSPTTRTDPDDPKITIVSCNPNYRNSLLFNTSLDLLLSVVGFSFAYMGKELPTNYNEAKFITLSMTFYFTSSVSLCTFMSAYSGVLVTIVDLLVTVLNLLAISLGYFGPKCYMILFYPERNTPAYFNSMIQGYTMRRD
T1 sequence (Q925D8 21-858): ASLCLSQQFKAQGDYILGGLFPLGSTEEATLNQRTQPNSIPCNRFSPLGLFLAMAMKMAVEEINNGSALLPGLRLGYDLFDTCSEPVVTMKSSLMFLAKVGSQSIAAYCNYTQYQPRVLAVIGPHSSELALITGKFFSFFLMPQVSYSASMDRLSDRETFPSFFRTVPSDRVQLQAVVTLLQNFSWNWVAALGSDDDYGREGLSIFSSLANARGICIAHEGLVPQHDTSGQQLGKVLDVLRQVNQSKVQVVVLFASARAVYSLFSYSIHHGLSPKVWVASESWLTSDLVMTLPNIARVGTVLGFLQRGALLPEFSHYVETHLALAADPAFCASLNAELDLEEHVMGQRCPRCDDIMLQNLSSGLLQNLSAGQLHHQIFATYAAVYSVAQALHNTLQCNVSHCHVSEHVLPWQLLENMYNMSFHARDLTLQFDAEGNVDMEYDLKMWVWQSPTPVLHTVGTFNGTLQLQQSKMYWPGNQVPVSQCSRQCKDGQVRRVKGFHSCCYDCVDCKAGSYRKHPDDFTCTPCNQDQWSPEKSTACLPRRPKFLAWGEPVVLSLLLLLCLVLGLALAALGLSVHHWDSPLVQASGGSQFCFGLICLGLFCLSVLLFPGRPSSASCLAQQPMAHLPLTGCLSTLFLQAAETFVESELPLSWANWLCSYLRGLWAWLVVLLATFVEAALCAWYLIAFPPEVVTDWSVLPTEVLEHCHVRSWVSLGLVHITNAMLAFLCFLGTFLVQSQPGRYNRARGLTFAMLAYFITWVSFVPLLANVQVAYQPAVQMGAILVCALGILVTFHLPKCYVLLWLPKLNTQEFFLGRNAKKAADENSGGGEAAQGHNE
Experimental: (§1) We generated mice that were homozygous for the T1R2 KO allele, but instead expressed a human T1R2 transgene in the native “T1R2-cells”. A 12 kb genomic clone containing the T1R2 regulatory sequences was fused to a hT1R2 full length cDNA and introduced into T1R2 KO mice. Multiple independent lines were assayed for their selectivity and sensitivity to sweet tastants. To examine expression of hT1R2, we performed two-color fluorescent in situ hybridization experiments in transgenic animals carrying the wild type mT1R2 allele. […] Taken together, these experiments validate T1Rs as key determinants of differences in sweet taste selectivity and specificity between rodents and humans, and further substantiate T1R2+3, and T1R2-expressing cells, as an principal mediator of sweet taste in vivo. Finally, we propose that polymorphisms in both T1R2 and T1R3 are important determinants of human individual sweet taste preferences.
(§2) Modified HEK-293 cells (PEAK^rapid cells; Edge BioSystems, Md.) were grown, transfected with T1Rs and promiscuous G-proteins and assayed for functional responses to tastants by Ca-imaging essentially as described previously (Nelson, G. et al., Cell, 106, 381-390 (2001)). […] Acquisition and analysis of fluorescence images used TILL-Vision software.

[2] = target: T2, human T1R2 and human T1R3 (Homo sapiens, UniProt Q7RTX0+Q8TE23); assay: Cells transfected with human T1R2 and human T1R3; assay type: cell-based
T2 construct: expressed in transfected cells; host or cells: cells (HEK inferred from the preceding sentence and b309)
T2 sequence (Q8TE23 20-839): T1 sequence (Q8TE23 20-839)
T2 sequence (Q7RTX0 21-852): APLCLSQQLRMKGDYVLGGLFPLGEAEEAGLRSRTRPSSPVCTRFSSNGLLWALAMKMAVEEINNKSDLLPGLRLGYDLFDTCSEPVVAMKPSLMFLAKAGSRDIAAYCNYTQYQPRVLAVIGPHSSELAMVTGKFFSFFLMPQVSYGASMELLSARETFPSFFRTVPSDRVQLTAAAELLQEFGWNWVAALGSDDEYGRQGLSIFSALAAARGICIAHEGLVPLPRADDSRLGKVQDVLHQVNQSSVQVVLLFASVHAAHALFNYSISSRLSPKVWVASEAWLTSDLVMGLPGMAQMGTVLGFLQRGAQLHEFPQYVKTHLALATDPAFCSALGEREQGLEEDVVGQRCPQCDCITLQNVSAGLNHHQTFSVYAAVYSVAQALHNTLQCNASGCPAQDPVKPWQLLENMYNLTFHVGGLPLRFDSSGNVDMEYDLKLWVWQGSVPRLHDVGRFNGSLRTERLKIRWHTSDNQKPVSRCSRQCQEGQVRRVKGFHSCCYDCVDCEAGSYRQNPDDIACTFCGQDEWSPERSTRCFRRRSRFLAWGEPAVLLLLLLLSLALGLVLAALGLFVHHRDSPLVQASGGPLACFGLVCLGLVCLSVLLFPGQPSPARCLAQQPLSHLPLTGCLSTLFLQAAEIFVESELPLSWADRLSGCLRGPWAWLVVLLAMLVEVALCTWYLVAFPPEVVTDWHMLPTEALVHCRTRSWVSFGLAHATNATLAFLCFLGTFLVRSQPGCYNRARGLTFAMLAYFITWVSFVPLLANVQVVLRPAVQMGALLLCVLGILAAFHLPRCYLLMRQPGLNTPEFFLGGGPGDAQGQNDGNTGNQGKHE
Experimental: as §1, §2

humans = settings: sub-millimolar concentrations; cited from earlier work
[3] = tested on: T1R2 KO mice expressing a human T1R2 gene; assay: Behavioral taste responses of mice expressing a human T1R2 transgene; assay type: in vivo, mouse; settings: humanized T1R2 mice (T1R2 KO + hT1R2 transgene); monellin ~10 uM, thaumatin ~5 uM, aspartame 10 mM, glycyrrhizic acid 500 uM, neohesperidin dihydrochalcone 400 uM
rodents = settings: 100 times higher concentrations than sweet to humans; cited from earlier work

COc1ccc(CCC(=O)c2c(O)cc(O[C@@H]3O[C@H](CO)[C@@H](O)[C@H](O)[C@H]3O[C@@H]3O[C@@H](C)[C@H](O)[C@@H](O)[C@H]3O)cc2O)cc1O [neohesperidin dihydrochalcone]
cell response [1]: do not respond
cell response [2]: robustly respond
sweet taste to humans (humans): taste sweet
behavioral response to human sweet tastants [3]: still do not respond
preference in rodents (rodents): no preference

Source: patent US7459277B2, “Mammalian T1R3 sweet taste receptors” (The Regents of the University of California, priority 2003, dated 2008)
